# Structures can show the parent of a compound that is named as a salt. Where two headings read alike, the source gives them in different places.
# Key:
# [1] = system: NCI-H292 lung cancer cells; assay: FDA drug screening, complete media vs cholesterol-free media without statin (TABLE 1); type: cell-based, human
# [2] = system: NCI-H292 lung cancer cells; assay: FDA drug screening, complete media vs cholesterol-free media with simvastatin (TABLE 2); type: cell-based, human
# [3] = Complete minus Cholesterol-free, […]
# [4] = NCI-H292 cells in cholesterol-free media without statin
# [5] = NCI-H292 cells, cholesterol-free media with simvastatin 0.04 μM, FDA drug library screen (TABLE 2)
# [6] = NCI-H292 cells, complete media, FDA drug library screen (TABLE 2)
# [7] = Complete minus Cholesterol-free, >0 enhanced anti-cancer activity, about 0 neutral, <0 antagonist
# [8] = NCI-H292 cells, cholesterol-free media without statin
# [9] = NCI-H292 cells, cholesterol-free media with simvastatin 0.04 μM, cell growth value in FDA drug screen
# [10] = NCI-H292 cells, complete media, cell growth value in FDA drug screen
# [11] = complete media minus cholesterol-free media + simvastatin, >0 enhanced anti-cancer activity, about 0 neutral, <0 antagonist
# [12] = NCI-H292 cells, cholesterol-free media without statin, FDA drug library screen
# [13] = NCI-H292 cells, complete media, FDA drug library screen
# [14] = NCI-H292 cells, FDA drug library screen, cholesterol-free media with simvastatin 0.04 μM
# [15] = NCI-H292 cells, FDA drug library screen, complete media
# [16] = complete media minus cholesterol-free media + simvastatin (0.04 μM), >0 enhanced anti-cancer activity, about 0 neutral, <0 antagonist
# [17] = complete vs cholesterol-free media, >0 enhanced anti-cancer activity, about 0 neutral, <0 antagonist
# [18] = complete media vs cholesterol-free media + simvastatin (0.04 μM), >0 enhanced anti-cancer activity, about 0 neutral, <0 antagonist
# [19] = NCI-H292 cells, FDA library drug in cholesterol-free media with simvastatin 0.04 μM
# [20] = NCI-H292 cells, FDA library drug in complete media
# [21] = complete vs cholesterol-free media, greater than 0 enhanced anti-cancer activity, about 0 neutral, below 0 antagonists
# [22] = Complete minus Cholesterol-free, greater than 0 enhanced anti-cancer activity, about 0 neutral, below 0 antagonist
# [23] = NCI-H292 cells, FDA drug library screen, cholesterol-free media without statin
# [24] = NCI-H292 cells, drug in cholesterol-free media with simvastatin 0.04 μM
# [25] = NCI-H292 cells, drug in complete media
# [26] = Complete minus Cholesterol-free, greater than 0 enhanced anti-cancer activity, about 0 neutral, below 0 antagonists
# [27] = NCI-H292 cells in complete media
molecule,measurement,setting,value
Lumateperone (tosylate),Difference,[1]; [3],−0.84
same,Cholesterol-free,[1]; [4],1.615
same,Cholesterol-free media + simvastatin (0.04 μM),[2]; [5],1.37
same,Complete Media,[2]; [6],1.357
same,Difference,"[2]; complete media minus cholesterol-free media + simvastatin (0.04 μM), […]",−0.01
Cc1ncc(C[n+]2csc(CCO)c2C)c(N)n1 [Thiamine (hydrochloride)],Difference,[1]; [7],−0.20
same,Cholesterol-free,[1]; [8],1.324
same,Complete,"[1]; NCI-H292 cells, complete media",1.125
same,Cholesterol-free media + simvastatin (0.04 μM),[2]; [9],1.098
same,Complete Media,[2]; [10],1.117
same,Difference,[2]; [11],0.02
CC(=O)OCC(=O)[C@@]12OC(C)(C)O[C@@H]1C[C@H]1[C@@H]3C[C@H](F)C4=CC(=O)C=C[C@]4(C)[C@@]3(F)[C@@H](O)C[C@@]12C [Fluocinonide],Difference,[1]; [7],−0.04
same,Cholesterol-free,[1]; [12],0.5848
same,Complete,[1]; [13],0.544
same,Cholesterol-free media + simvastatin (0.04 μM),[2]; [14],0.6998
same,Complete Media,[2]; [15],0.898
same,Difference,[2]; [11],0.20
COC(=O)C[C@](O)(CCCC(C)(C)O)C(=O)O[C@@H]1C(OC)=C[C@]23CCCN2CCc2cc4c(cc2[C@H]13)OCO4 [Homoharringtonine],Difference,[1]; [7],−0.02
same,Cholesterol-free,[1]; [12],−0.02013
same,Complete,[1]; [13],−0.04264
same,Cholesterol-free media + simvastatin (0.04 μM),[2]; [5],0.0331
same,Complete Media,[2]; [6],0.0063
same,Difference,[2]; [16],−0.03
CO[C@H]1/C=C/O[C@@]2(C)Oc3c(C)c(O)c4c(O)c(c5c(nc6cc(C)ccn65)c4c3C2=O)NC(=O)/C(C)=C\C=C\[C@H](C)[C@H](O)[C@@H](C)[C@@H](O)[C@@H](C)[C@H](OC(C)=O)[C@@H]1C [Rifaximin],Cholesterol-free,[1]; [12],0.8156
same,Complete,[1]; [13],1.163
same,Difference,[1]; [17],0.35
same,Cholesterol-free media + simvastatin (0.04 μM),[2]; [14],0.8832
same,Complete Media,[2]; [15],0.7304
same,Difference,[2]; [18],−0.15
O=C(CCCN1CCC(O)(c2ccc(Cl)cc2)CC1)c1ccc(F)cc1 [Haloperidol],Cholesterol-free,[1]; [12],0.4782
same,Complete,[1]; [13],0.7598
same,Difference,[1]; [17],0.28
same,Cholesterol-free media + simvastatin (0.04 μM),[2]; [9],0.8115
same,Complete Media,[2]; [10],0.843
same,Difference,[2]; [11],0.03
COc1ccc(C[C@H](N)C(=O)N[C@H]2[C@@H](O)[C@H](n3cnc4c(N(C)C)ncnc43)O[C@@H]2CO)cc1 [Puromycin (dihydrochloride)],Difference,[1]; [7],−0.02
same,Cholesterol-free,[1]; [12],0.005958
same,Complete,[1]; [13],−0.01645
same,Cholesterol-free media + simvastatin (0.04 μM),[2]; [5],−0.002227
same,Complete Media,[2]; [6],−0.05066
same,Difference,[2]; [16],−0.05
CC(C)=CCC/C(C)=C/CC/C(C)=C/C=C/C(C)=C/C(=O)O [Peretinoin],Difference,[1]; [7],−0.19
same,Cholesterol-free,[1]; [8],1.271
same,Complete,"[1]; NCI-H292 cells, complete media",1.084
same,Cholesterol-free media + simvastatin (0.04 μM),[2]; [19],1.273
same,Complete Media,[2]; [20],0.971
same,Difference,[2]; [18],−0.30
CC(C)[N+](C)(CCC(C(N)=O)(c1ccccc1)c1ccccc1)C(C)C.[I-] [Isopropamide (iodide)],Cholesterol-free,[1]; [8],1.319
same,Complete,"[1]; NCI-H292 cells, complete media",0.9185
same,Difference,[1]; [21],−0.40
same,Cholesterol-free media + simvastatin (0.04 μM),[2]; [9],0.9908
same,Complete Media,[2]; [10],1.047
same,Difference,[2]; [11],0.06
CC1=C(C(=O)O)N2C(=O)[C@@H](NC(=O)[C@H](N)C3=CCC=CC3)[C@H]2SC1 [Cephradine],Cholesterol-free,[1]; [12],0.9298
same,Complete,[1]; [13],1.756
same,Difference,[1]; [17],0.83
same,Cholesterol-free media + simvastatin (0.04 μM),[2]; [19],1.213
same,Complete Media,[2]; [20],0.8523
same,Difference,[2]; [18],−0.36
OCCN1C[C@H](O)[C@@H](O)[C@H](O)[C@H]1CO [Miglitol],Difference,[1]; [22],−0.11
same,Cholesterol-free,[1]; [23],0.916
same,Complete,[1]; [15],0.8049
same,Cholesterol-free media + simvastatin (0.04 μM),[2]; [24],1.367
same,Complete Media,[2]; [25],1.199
same,Difference,[2]; [18],−0.17
Danofloxacin (mesylate),Difference,[1]; [26],−0.77
same,Cholesterol-free,[1]; [4],1.786
same,Complete,[1]; [27],1.013
same,Cholesterol-free media + simvastatin (0.04 μM),[2]; [9],0.9788
same,Complete Media,[2]; [10],1.081
same,Difference,[2]; [11],0.10
O=C(OCC(O)CO)c1ccccc1Nc1ccnc2cc(Cl)ccc12 (stereo not drawn) [Glafenine (hydrochloride)],Cholesterol-free,[1],1.367
same,Complete,[1],1.255
same,Difference,[1],−0.11
same,Cholesterol-free media + simvastatin (0.04 μM),[2],0.8957
same,Complete Media,[2],0.9245
same,Difference,[2],0.03
CC(=O)O[C@@]12CO[C@@H]1C[C@H](O)[C@@]1(C)C(=O)[C@H](O)C3=C(C)[C@@H](OC(=O)[C@H](O)[C@@H](NC(=O)OC(C)(C)C)c4ccccc4)C[C@@](O)([C@@H](OC(=O)c4ccccc4)[C@H]21)C3(C)C [Docetaxel],Difference,[1]; [7],0.04
same,Cholesterol-free,[1]; [12],0.1661
same,Complete,[1]; [13],0.2055
same,Cholesterol-free media + simvastatin (0.04 μM),[2]; [9],0.2547
same,Complete Media,[2]; [10],0.2778
same,Difference,[2]; [11],0.02
Adenine (hemisulfate),Cholesterol-free,[1],1.657
same,Complete,[1],0.9172
same,Difference,[1],−0.74
same,Cholesterol-free media + simvastatin (0.04 μM),[2],1.503
same,Complete Media,[2],1.604
same,Difference,[2],0.10
O=C1NCC2(CCN(CCc3ccccc3)CC2)O1 [Fenspiride (Hydrochloride)],Cholesterol-free,[1]; [12],0.597
same,Complete,[1]; [13],0.752
same,Difference,[1]; [17],0.15
same,Cholesterol-free media + simvastatin (0.04 μM),[2]; [24],1.105
same,Complete Media,[2]; [25],0.9138
same,Difference,[2]; [18],−0.19
O=C1NC(=O)C(c2ccccc2)(c2ccccc2)N1 [Phenytoin (sodium)],Difference,[1]; [7],−0.27
same,Cholesterol-free,[1]; [8],1.197
same,Complete,"[1]; NCI-H292 cells, complete media",0.9283
same,Cholesterol-free media + simvastatin (0.04 μM),[2]; [5],0.8893
same,Complete Media,[2]; [6],0.8884
same,Difference,[2]; [16],0.00
CCCN1C[C@H](C)[C@@H](O)[C@](C)(O)[C@@H](CC)OC(=O)[C@H](C)[C@@H](O[C@H]2C[C@@](C)(OC)[C@@H](O)[C@H](C)O2)[C@H](C)[C@@H](O[C@@H]2O[C@H](C)C[C@H](N(C)C)[C@H]2O)[C@](C)(O)C[C@H]1C [Gamithromycin],Cholesterol-free,[1]; [8],1.35
same,Complete,"[1]; NCI-H292 cells, complete media",0.886
same,Difference,[1]; [21],−0.46
same,Cholesterol-free media + simvastatin (0.04 μM),[2]; [14],1.403
same,Complete Media,[2]; [15],1.765
same,Difference,[2]; [11],0.36
CCC(=O)O[C@H](CC(=O)O)C[N+](C)(C)C [Levocarnitine propionate (hydrochloride)],Difference,[1]; [7],−0.30
same,Cholesterol-free,[1]; [8],1.256
same,Complete,"[1]; NCI-H292 cells, complete media",0.9514
same,Cholesterol-free media + simvastatin (0.04 μM),[2]; [5],1.106
same,Complete Media,[2]; [6],1.114
same,Difference,[2]; [16],0.01
O=C(O[C@@H]1C[C@@H]2C[C@H]3C[C@H](C1)N2CC3=O)c1c[nH]c2ccccc12 [Dolasetron (Mesylate hydrate)],Cholesterol-free,[1]; [8],1.287
same,Complete,"[1]; NCI-H292 cells, complete media",0.8444
same,Difference,[1]; [21],−0.44
same,Cholesterol-free media + simvastatin (0.04 μM),[2]; [14],1.31
same,Complete Media,[2]; [15],1.817
same,Difference,[2]; [11],0.51
COc1ccc(C(=O)c2ccccc2)c(O)c1 [Oxybenzone],Difference,[1]; [7],−0.29
same,Cholesterol-free,[1]; [8],1.383
same,Complete,"[1]; NCI-H292 cells, complete media",1.094
same,Cholesterol-free media + simvastatin (0.04 μM),[2]; [24],1.175
same,Complete Media,[2]; [25],0.918
same,Difference,[2]; [18],−0.26
CCCNC(=O)NS(=O)(=O)c1ccc(Cl)cc1 [Chlorpropamide],Difference,[1]; [26],−0.51
same,Cholesterol-free,[1]; [4],1.49
same,Complete,[1]; [27],0.9801
same,Cholesterol-free media + simvastatin (0.04 μM),[2]; [24],1.114
same,Complete Media,[2]; [25],0.9308
same,Difference,[2]; [18],−0.18
Naloxegol (oxalate),Difference,[1]; [3],−0.15
same,Cholesterol-free,[1]; [23],1.025
same,Cholesterol-free media + simvastatin (0.04 μM),[2]; [14],0.8544
same,Difference,"[2]; complete media minus cholesterol-free media + simvastatin, […]",0.21
N#C/C(=C1/SC[C@@H](c2ccc(Cl)cc2Cl)S1)n1ccnc1 [Luliconazole],Difference,[1]; [26],−0.58
same,Cholesterol-free,[1]; [4],1.532
same,Complete,[1]; [27],0.9562
same,Cholesterol-free media + simvastatin (0.04 μM),[2]; [14],0.3531
same,Complete Media,[2]; [15],0.8464
same,Difference,[2]; [11],0.49
COc1cc2c(c(OC)c1OC)-c1ccc(OC)c(=O)cc1[C@@H](NC(C)=O)CC2 [Colchicine],Cholesterol-free,[1],0.1135
same,Complete,[1],0.07073
same,Difference,[1],−0.04
same,Cholesterol-free media + simvastatin (0.04 μM),[2],0.1971
same,Complete Media,[2],0.2205
same,Difference,[2],0.02
Oclacitinib (maleate),Difference,[1]; [22],−0.16
same,Cholesterol-free,[1]; [23],0.7098
same,Complete,[1]; [15],0.5476
same,Cholesterol-free media + simvastatin (0.04 μM),[2]; [14],0.9891
same,Complete Media,[2]; [15],0.8445
same,Difference,[2]; [18],−0.14
CC(C)OC(=O)OCOP(=O)(CO[C@H](C)Cn1cnc2c(N)ncnc21)OCOC(=O)OC(C)C.O=C(O)/C=C/C(=O)O [Tenofovir (Disoproxil Fumarate)],Cholesterol-free,[1]; [8],1.163
same,Complete,"[1]; NCI-H292 cells, complete media",0.7425
same,Difference,[1]; [21],−0.42
same,Cholesterol-free media + simvastatin (0.04 μM),[2]; [19],1.321
same,Complete Media,[2]; [20],0.7221
same,Difference,[2]; [18],−0.60

# Reference: patent US20250144067A1, “PERSONALIZED STARVATION THERAPY FOR CANCER” (Faeth Therapeutics, Inc., priority 2021, published 2025)
